The values that follow come from US9440978B2, “Imidazolo-, oxazolo-, and thiazolopyrimidine modulators of TRPV1” (Janssen Pharmaceutica NV, priority 2007, dated 2016).

Structures are written as SMILES. Where a name gives a salt, the structure may show the parent alone. Where only a bound is given, the exact number is not on record here.

One assay deals with T1, human TRPV1 (Homo sapiens, UniProt Q8NER1).
T1 construct: expressed in transfected cells; host or cells: HEK293
In words: Block of capsaicin-induced Ca2+ influx, human assay (hTRPV1/HEK293, FLIPR). In kind it is cell-based. The settings on record: HEK293 cells transfected with human TRPV1; 150 nM capsaicin challenge; mean; > value = solubility limit in assay medium. As for the experimental part: (§1) HEK293 cells were transfected with human TRPV1 cloned in pcDNA3.1zeo(+) using the Effectene non-liposomal lipid based transfection kit (Qiagen) (hTRPV1/HEK293). hTRPV1/HEK293 cells were routinely grown as monolayers under selection in zeocin (200 μg/mL; Invitrogen) in Dulbecco's Modified Eagle Medium (DMEM, Gibco BRL) supplemented with 10% fetal bovine serum, and penicillin/streptomycin (50 units/mL) in 5% CO2 at 37° C. Cells were passaged frequently, every 3-5 days, to avoid overgrowth, depletion of essential medium components, or acidic medium exposure. Cells were passaged using a brief wash in 0.05% trypsin with 1 mM EDTA, followed by dissociation in divalent-free phosphate-buffered saline (Hyclone #SH30028.02). […] The assay buffer was composed of 130 mM NaCl, 2 mM KCl, 2 mM MgCl2, 10 mM HEPES, 5 mM glucose, and either 2 mM or 20 μM CaCl2. On the day of the experiment, the culture medium was replaced with 2 mM calcium assay buffer using an automated plate washer (ELx405; Biotek, VT). […] After loading the cells, the dye solution was replaced with 50 μL/well of 20 μM calcium assay buffer using the ELx405 plate washer. Test compounds (50 μL/well) were added to the plate and incubated for 30 min. Intracellular Ca^2+ levels were subsequently assayed using a Fluorometric Imaging Plate Reader (FLIPR™ instrument, Molecular Devices, CA) to simultaneously monitor Fluo-3 fluorescence in all wells (λexcitation=488 nm, λemission=540 nm) during challenge with agonist (capsaicin). The IC50 values were determined. […] The contents of the wells were mixed 3 times (40 μL mix volume) immediately after the additions were made. Concentration-dependence of block was determined by exposing each well of cells in duplicate rows of a 96-well plate to a serial dilution of test compound. The concentration series usually started at 10 μM with a three-fold serial decrement in concentration. The magnitude of the capsaicin response was determined by measuring the change in fluo3 fluorescence before and 100 seconds after the addition of the agonist. Data were analyzed using a non-linear regression program (Origin; OriginLab, MA).
(§2) IC50 values shown are the average (mean) of the results obtained. […] Compounds were tested as in the free base, trifluoroacetic acid salt, or hydrochloride salt form.

The next assay addresses T2, rat TRPV1 (Rattus norvegicus, UniProt O35433).
T2 construct: expressed in transfected cells; host or cells: HEK293
In words: Block of capsaicin-induced Ca2+ influx, rat assay (rTRPV1/HEK293, FLIPR). In kind it is cell-based. The settings on record: HEK293 cells transfected with rat TRPV1; capsaicin challenge; mean; > value = solubility limit in assay medium; read-out: Rat IC50. As for the experimental part: as §1
This assay was performed similarly to the human assay described above, but using HEK293 cells transfected with rat TRPV1 (rTRPV1/HEK293).
as §2

As usually defined, the IC50 is the midpoint of a concentration-inhibition curve.

T2 sequence (O35433 whole entry): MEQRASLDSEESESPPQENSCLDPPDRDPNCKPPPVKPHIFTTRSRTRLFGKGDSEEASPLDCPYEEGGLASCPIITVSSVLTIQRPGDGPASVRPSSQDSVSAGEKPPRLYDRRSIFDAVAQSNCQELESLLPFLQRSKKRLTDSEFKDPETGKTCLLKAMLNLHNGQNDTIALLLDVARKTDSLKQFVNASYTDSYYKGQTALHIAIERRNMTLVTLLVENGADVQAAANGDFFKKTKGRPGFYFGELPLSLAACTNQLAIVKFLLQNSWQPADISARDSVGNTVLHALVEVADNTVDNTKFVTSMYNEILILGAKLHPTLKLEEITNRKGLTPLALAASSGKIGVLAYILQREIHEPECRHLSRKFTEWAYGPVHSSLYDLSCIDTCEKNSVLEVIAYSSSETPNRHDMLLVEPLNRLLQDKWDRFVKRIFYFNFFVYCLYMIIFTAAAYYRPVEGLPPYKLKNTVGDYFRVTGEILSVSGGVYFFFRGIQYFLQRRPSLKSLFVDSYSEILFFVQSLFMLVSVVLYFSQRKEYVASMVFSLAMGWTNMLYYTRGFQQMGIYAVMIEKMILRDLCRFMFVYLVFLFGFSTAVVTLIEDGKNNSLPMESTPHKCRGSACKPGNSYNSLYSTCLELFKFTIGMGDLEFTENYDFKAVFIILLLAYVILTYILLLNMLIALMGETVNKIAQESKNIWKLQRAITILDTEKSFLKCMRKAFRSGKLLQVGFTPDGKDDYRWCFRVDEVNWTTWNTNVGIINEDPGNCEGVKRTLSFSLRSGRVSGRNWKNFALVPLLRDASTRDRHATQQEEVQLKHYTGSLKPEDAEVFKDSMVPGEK
T1 sequence (Q8NER1 whole entry): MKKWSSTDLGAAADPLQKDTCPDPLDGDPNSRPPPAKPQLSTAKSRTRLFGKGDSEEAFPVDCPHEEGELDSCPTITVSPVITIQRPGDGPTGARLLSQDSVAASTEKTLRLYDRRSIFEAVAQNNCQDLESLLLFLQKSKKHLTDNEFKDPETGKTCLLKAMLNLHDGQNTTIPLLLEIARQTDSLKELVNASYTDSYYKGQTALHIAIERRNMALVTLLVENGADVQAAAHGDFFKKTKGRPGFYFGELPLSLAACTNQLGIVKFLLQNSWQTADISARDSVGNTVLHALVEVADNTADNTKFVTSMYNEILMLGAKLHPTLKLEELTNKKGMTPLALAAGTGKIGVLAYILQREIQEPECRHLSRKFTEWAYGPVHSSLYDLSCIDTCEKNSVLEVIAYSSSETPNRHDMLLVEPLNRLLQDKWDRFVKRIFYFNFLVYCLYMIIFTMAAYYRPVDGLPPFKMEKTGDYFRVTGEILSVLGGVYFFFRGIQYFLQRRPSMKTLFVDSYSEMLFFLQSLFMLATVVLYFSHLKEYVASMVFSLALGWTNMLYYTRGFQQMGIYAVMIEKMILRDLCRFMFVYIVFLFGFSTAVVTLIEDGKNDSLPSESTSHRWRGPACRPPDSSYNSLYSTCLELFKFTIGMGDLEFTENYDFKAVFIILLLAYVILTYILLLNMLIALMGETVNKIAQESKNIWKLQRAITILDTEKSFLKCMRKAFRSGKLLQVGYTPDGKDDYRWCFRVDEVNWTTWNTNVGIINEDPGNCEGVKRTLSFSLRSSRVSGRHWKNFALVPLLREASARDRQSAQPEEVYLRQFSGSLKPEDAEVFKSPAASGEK

With `FC(F)(F)c1ccc(Nc2ncnc3oc(Cc4c(Cl)cccc4Cl)nc23)cc1` [Example 1, [2-(2,6-Dichloro-benzyl)-oxazolo[5,4-d]pyrimidin-7-yl]-(4-trifluoromethyl-phenyl)-amine], the IC50 on human TRPV1 turned out to be 136 nM; at rat TRPV1 it was 58 nM.

`CC(C)(C)c1ccc(Nc2ncnc3oc(Cc4c(Cl)cccc4Cl)nc23)cc1` [Example 2, (4-tert-Butyl-phenyl)-[2-(2,6-dichloro-benzyl)-oxazolo[5,4-d]pyrimidin-7-yl]-amine]: the IC50 against human TRPV1 is 75 nM; at rat TRPV1 it was 30 nM.

As to `FC(F)(F)c1ccc(Nc2ncnc3sc(Cc4c(Cl)cccc4Cl)nc23)cc1` [Example 3, [2-(2,6-Dichloro-benzyl)-thiazolo[5,4-d]pyrimidin-7-yl]-(4-trifluoromethyl-phenyl)-amine], the IC50 came to 48 nM against human TRPV1 and 30 nM on rat TRPV1.

As to `FC(F)(F)c1ccc(Nc2ncnc3sc(Cc4ccccc4I)nc23)cc1` [Example 4, [2-(2-Iodo-benzyl)-thiazolo[5,4-d]pyrimidin-7-yl]-(4-trifluoromethyl-phenyl)-amine], the IC50 turned out to be 22 nM against human TRPV1 and 8 nM at rat TRPV1.

Consider `CSc1nc(Nc2ccc(C(F)(F)F)cc2)c2nc(Cc3c(Cl)cccc3Cl)sc2n1` [Example 5, [2-(2,6-Dichloro-benzyl)-5-methylsulfanyl-thiazolo[5,4-d]pyrimidin-7-yl]-(4-trifluoromethyl-phenyl)-amine], for which, on rat TRPV1, the concentration for half-maximal inhibition (IC50) was over 6670 nM.

For `Cc1nc(Nc2ccc(C(F)(F)F)cc2)c2nc(Cc3c(Cl)cccc3Cl)sc2n1` [Example 6, [2-(2,6-Dichloro-benzyl)-5-methyl-thiazolo[5,4-d]pyrimidin-7-yl]-(4-trifluoromethyl-phenyl)-amine], the values for the IC50 against human TRPV1 and at rat TRPV1 were 23 nM and 15 nM, respectively.

Take `COC(=O)C(C)(C)c1ccc(Nc2ncnc3sc(Cc4c(Cl)cccc4Cl)nc23)cc1` [Example 26, Methyl 2-(4-{[2-(2,6-dichlorobenzyl)[1,3]thiazolo[5,4-d]pyrimidin-7-yl]amino}phenyl)-2-methylpropanoate]: the half-inhibitory concentration (IC50) at rat TRPV1 turned out to be 74 nM.

Regarding `FC(F)(F)c1ccc(Nc2ncnc3sc(Cc4ccc(Cl)cc4Cl)nc23)cc1` [Example 27, 2-(2,4-Dichlorobenzyl)-N-[4-(trifluoromethyl)phenyl][1,3]thiazolo[5,4-d]pyrimidin-7-amine], the 50% inhibitory concentration (IC50) at rat TRPV1 came to 43 nM.

As to `O=S(=O)(c1ccc(Nc2ncnc3sc(Cc4c(Cl)cccc4Cl)nc23)cc1)N1CCNCC1` [Example 28, 2-(2,6-Dichlorobenzyl)-N-[4-(piperazin-1-ylsulfonyl)phenyl][1,3]thiazolo[5,4-d]pyrimidin-7-amine], the half-maximal inhibitory concentration (IC50) on rat TRPV1 was over 2220 nM.

On to `FC(F)(F)c1ccc(Nc2ncnc3sc(Cc4ccc(Cl)cc4Cl)nc23)cn1` [Example 29, 2-(2,4-Dichlorobenzyl)-N-[6-(trifluoromethyl)pyridin-3-yl][1,3]thiazolo[5,4-d]pyrimidin-7-amine], for which the 50% inhibitory concentration (IC50) on rat TRPV1 was found to be 600 nM.

Regarding `FC(F)(F)c1ccc(Nc2ncnc3sc(Cc4ccccc4C(F)(F)F)nc23)cc1` [Example 30, 2-[2-(Trifluoromethyl)benzyl]-N-[4-(trifluoromethyl)phenyl][1,3]thiazolo[5,4-d]pyrimidin-7-amine], the IC50 at rat TRPV1 turned out to be 4 nM.

As for `FC(F)(F)c1ccc(Nc2ncnc3sc(Cc4ccccc4C(F)(F)F)nc23)cn1` [Example 31, 2-[2-(Trifluoromethyl)benzyl]-N-[6-(trifluoromethyl)pyridin-3-yl][1,3]thiazolo[5,4-d]pyrimidin-7-amine], the IC50 at rat TRPV1 came to 13 nM.

For `CSc1ccc(Nc2ncnc3sc(Cc4c(Cl)cccc4Cl)nc23)cn1` [Example 38, 2-(2,6-Dichlorobenzyl)-N-[6-(methylsulfanyl)pyridin-3-yl][1,3]thiazolo[5,4-d]pyrimidin-7-amine], the IC50 at rat TRPV1 was 99 nM.

Turning to `CC(CO)Nc1nc(Nc2ccc(C(F)(F)F)cc2)c2nc(Cc3c(Cl)cccc3Cl)sc2n1` (centres unmarked) [Example 70, 2-[2-(2,6-Dichloro-benzyl)-7-(4-trifluoromethyl-phenylamino)-thiazolo[5,4-d]pyrimidin-5-ylamino]-propan-1-ol], the half-maximal inhibitory concentration (IC50) on rat TRPV1 was 1020 nM.

Take `COC[C@@H]1CCCN1c1nc(Nc2ccc(C(F)(F)F)cc2)c2nc(Cc3c(Cl)cccc3Cl)sc2n1` [Example 71, (S)-[2-(2,6-Dichloro-benzyl)-5-(2-methoxymethyl-pyrrolidin-1-yl)-thiazolo[5,4-d]pyrimidin-7-yl]-(4-trifluoromethyl-phenyl)-amine]: the half-inhibitory concentration (IC50) at rat TRPV1 was 2450 nM.

Take `CC(C)Nc1nc(Nc2ccc(C(F)(F)F)cc2)c2nc(Cc3c(Cl)cccc3Cl)sc2n1` [Example 72, 2-(2,6-Dichloro-benzyl)-N^5-isopropyl-N^7-(4-trifluoromethyl-phenyl)-thiazolo[5,4-d]pyrimidine-5,7-diamine]: the IC50 on rat TRPV1 worked out at 72 nM.

Take `FC(F)(F)c1ccc(Nc2nc(N3CCC3)nc3sc(Cc4c(Cl)cccc4Cl)nc23)cc1` [Example 73, [5-Azetidin-1-yl-2-(2,6-dichloro-benzyl)-thiazolo[5,4-d]pyrimidin-7-yl]-(4-trifluoromethyl-phenyl)-amine]: the IC50 at rat TRPV1 amounted to 63 nM.

Take `FC(F)(F)c1ccc(Nc2nc(N3CCNCC3)nc3sc(Cc4c(Cl)cccc4Cl)nc23)cc1` [Example 74, [2-(2,6-Dichloro-benzyl)-5-piperazin-1-yl-thiazolo[5,4-d]pyrimidin-7-yl]-(4-trifluoromethyl-phenyl)-amine trifluoroacetic acid salt]: the IC50 on rat TRPV1 was over 6670 nM.

Turning to `CC(C)N1CCN(c2nc(Nc3ccc(C(F)(F)F)cc3)c3nc(Cc4c(Cl)cccc4Cl)sc3n2)CC1` [Example 75, [2-(2,6-Dichloro-benzyl)-5-(4-isopropyl-piperazin-1-yl)-thiazolo[5,4-d]pyrimidin-7-yl]-(4-trifluoromethyl-phenyl)-amine trifluoroacetic acid salt], on rat TRPV1, the IC50 was determined as 132 nM.

On to `FC(F)(F)c1ccc(Nc2nc(N3CCCCC3)nc3sc(Cc4c(Cl)cccc4Cl)nc23)cc1` [Example 81, [2-(2,6-Dichloro-benzyl)-5-piperidin-1-yl-thiazolo[5,4-d]pyrimidin-7-yl]-(4-trifluoromethyl-phenyl)-amine], for which the 50% inhibitory concentration (IC50) at rat TRPV1 was determined as 14 nM.

Regarding `FC(F)(F)c1ccc(Nc2nc(NCCN3CCCC3)nc3sc(Cc4c(Cl)cccc4Cl)nc23)cc1` [Example 82, 2-(2,6-Dichloro-benzyl)-N^5-(2-pyrrolidin-1-yl-ethyl)-N^7-(4-trifluoromethyl-phenyl)-thiazolo[5,4-d]pyrimidine-5,7-diamine trifluoroacetic acid salt], the IC50 at rat TRPV1 came out at 959 nM.

As for `FC(F)(F)c1nnc(Nc2ncnc3sc(Cc4c(Cl)cccc4Cl)nc23)s1` [Example 98, 2-(2,6-Dichlorobenzyl)-N-[5-(trifluoromethyl)-1,3,4-thiadiazol-2-yl][1,3]thiazolo[5,4-d]pyrimidin-7-amine], the IC50 on rat TRPV1 is 1050 nM.

Turning to `CC(C)(C)c1nnc(Nc2ncnc3sc(Cc4c(Cl)cccc4Cl)nc23)s1` [Example 99, N-(5-tert-Butyl-1,3,4-thiadiazol-2-yl)-2-(2,6-dichlorobenzyl)[1,3]thiazolo[5,4-d]pyrimidin-7-amine], on rat TRPV1, the IC50 worked out at 195 nM.

Turning to `CC(C)COc1nc(Nc2ccc(C(F)(F)F)cc2)c2nc(Cc3c(Cl)cccc3Cl)sc2n1` [Example 103, [2-(2,6-Dichloro-benzyl)-5-isobutoxy-thiazolo[5,4-d]pyrimidin-7-yl]-(4-trifluoromethyl-phenyl)-amine], on rat TRPV1, the IC50 stood at 16 nM.
